One data set addresses CDK5/p35 (Homo sapiens, UniProt Q00535). As to the kind of experiment: CDK selectivity assay, CDK5/p35. Format: biochemical. The text has this:
(§1) (specific activity approx 500 cpm/pmol, concentration as required).

Data set [1] deals with human colon carcinoma cell line HCT 116. As to the kind of experiment: Anti-proliferative activity, Alamar Blue assay. Format: cell-based. The settings on record: 72 hours compound incubation, read-out: IC50, inhibition of cell growth, HCT 116. The method in brief:
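Cells were allowed to recover for 16 h, then exposed to compounds or combinations for 72 h. Viability was measured by resazurin reduction after 6 h with 10% (v/v) Alamar Blue, read at 535 nm ex/590 […] em. In the non-proliferating format, cells were held at confluence for 96 h before the 72 h treatment.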
(In general: Alamar Blue is a resazurin reagent that responds to reducing activity.)

Another data set addresses T1, CDK2/CyclinA (Homo sapiens, UniProt P24941).
T1 construct: purchased Upstate Biotechnology
As to the kind of experiment: Measurement of CDK2 kinase inhibitory activity (IC50), Example 248. Format: biochemical. The procedure: Compounds of the invention were tested for kinase inhibitory activity using either the following protocol or the activated CDK2/cyclin A kinase protocol described in Example 250.
1.7 μl of active CDK2/CyclinA (Upstate Biotechnology, 10 U/μl) is diluted in assay buffer (25.0 μl of 10× strength assay buffer (200 mM MOPS pH 7.2, 250 mM (3-glycerophosphate, 50 mM EDTA, 150 mM MgCl2), 11.27 μl 10 mM ATP, 2.5 μl 1M DTT, 25 μl 100 mM sodium orthovanadate, 708.53 μl H2O), and 10 μl mixed with 10 μl of histone substrate mix (60 μl bovine histone H1 (Upstate Biotechnology, 5 mg/ml), 940 μl H2O, 35 μCi γ^33P-ATP) and added to 96 well plates along with 5 μl of various dilutions of the test compound in DMSO (up to 2.5%). The reaction is allowed to proceed for 5 hours before being stopped with an excess of ortho-phosphoric acid (30 μl at 2%).
γ^33P-ATP which remains unincorporated into the histone H1 is separated from phosphorylated histone H1 on a Millipore MAPH filter plate. The wells of the MAPH plate are wetted with 0.5% orthophosphoric acid, and then the results of the reaction are filtered with a Millipore vacuum filtration unit through the wells. Following filtration, the residue is washed twice with 200 μl of 0.5% orthophosphoric acid. Once the filters have dried, 25 μl of Microscint 20 scintillant is added, and then counted on a Packard Topcount for 30 seconds.

A further data set addresses Activated CDK2/CyclinA (Homo sapiens, UniProt P24941). In words: Activated CDK2/CyclinA kinase inhibitory activity assay (IC50), Example 250A. Format: biochemical.
The target in the next data set is T2, GSK3-β (Homo sapiens, UniProt P49841).
T2 construct: purchased Upstate Discovery
As to the kind of experiment: Inhibitory activity against glycogen synthase kinase-3 (Protocol A or B). The data set is classed as biochemical. The settings on record: either Protocol A or Protocol B; read-out: IC50 in the GSK3-B assays. As for the experimental part:
The activities of the compounds of the invention as inhibitors of GSK-3 were determined using either Protocol A or Protocol B below.
The reaction is allowed to proceed for 3 hours before being stopped with an excess of ortho-phosphoric acid (5 μl at 2%). The filtration procedure is as for Activated CDK2/CyclinA assay above.
GSK3β (human) is diluted to a 10× working stock in 50 mM Tris pH 7.5, 0.1 mM EGTA, 0.1 mM sodium vanadate, 0.1% β-mercaptoethanol, 1 mg/ml BSA.
as §1

The target of a further data set is T3, CDK1/CyclinB (Homo sapiens, UniProt P06493).
T3 construct: purchased Upstate Discovery
As to the kind of experiment: CDK1/CyclinB assay. Conditions: Example 250B protocol or selectivity protocol. The data set is classed as biochemical. The procedure:
as §1
The reaction is allowed to proceed for 2 to 4 hours before being stopped with an excess of ortho-phosphoric acid (5 μl at 2%).
γ^33P-ATP which remains unincorporated into the histone H1 is separated from phosphorylated histone H1 on a Millipore MAPH filter plate. The wells of the MAPH plate are wetted with 0.5% orthophosphoric acid, and then the results of the reaction are filtered with a Millipore vacuum filtration unit through the wells. Following filtration, the residue is washed twice with 200 μl of 0.5% orthophosphoric acid. Once the filters have dried, 20 μl of Microscint 20 scintillant is added, and then counted on a Packard Topcount for 30 seconds.

The conditions of data set [2]: clinical studies; cited from earlier work.
In another data set the test system is PKA. Conditions: data published in 2002; cited from earlier work.
The subject of another data set is PKG. Conditions: data published in 2002; cited from earlier work.
For a further data set, the system named is PKC. Conditions: data published in 2002; cited from earlier work.
In another data set the test system is OVCAR-3 tumour cells. Conditions: concentrations of 50 and 100 microM; cited from earlier work.
For another data set, the system named is symptomatic CLL patients. Conditions: initial therapy; cited from earlier work.
The next data set can be described thus: Solubility of the salt. Format: physicochemical.
A short description of data set [3]: Stability and hygroscopicity of the salt. The data set is classed as physicochemical. The text has this: The term ‘stable’ or ‘stability’ as used herein includes chemical stability and solid state (physical) stability. The term ‘chemical stability’ means that the compound can be stored in an isolated form, or in the form of a formulation in which it is provided in admixture with for example, pharmaceutically acceptable carriers, diluents or adjuvants as described herein, under normal storage conditions, with little or no chemical degradation or decomposition. ‘Solid-state stability’ means the compound can be stored in an isolated solid form, or the form of a solid formulation in which it is provided in admixture with, for example, pharmaceutically acceptable carriers, diluents or adjuvants as described herein, under normal storage conditions, with little or no solid-state transformation (e.g. hydration, dehydration, solvatisation, desolvatisation, crystallisation, recrystallisation or solid-state phase transition).

The source of these data is patent US8404718B2, “Combinations of pyrazole kinase inhibitors” (Astex Therapeutics Limited, priority 2005, dated 2013).

Structures can show the parent of a compound that is named as a salt.

T2 sequence (P49841 whole entry): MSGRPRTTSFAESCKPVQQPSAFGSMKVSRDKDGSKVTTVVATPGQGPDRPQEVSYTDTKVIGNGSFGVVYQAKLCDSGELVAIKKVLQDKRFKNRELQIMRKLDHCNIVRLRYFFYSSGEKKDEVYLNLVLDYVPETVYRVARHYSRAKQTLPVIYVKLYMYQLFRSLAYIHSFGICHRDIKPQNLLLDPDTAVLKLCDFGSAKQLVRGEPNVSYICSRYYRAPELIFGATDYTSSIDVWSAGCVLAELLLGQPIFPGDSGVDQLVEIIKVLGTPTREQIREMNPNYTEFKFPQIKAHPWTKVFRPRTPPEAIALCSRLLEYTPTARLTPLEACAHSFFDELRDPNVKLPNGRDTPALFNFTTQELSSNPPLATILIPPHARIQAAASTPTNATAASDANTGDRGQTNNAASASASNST
T3 sequence (P06493 whole entry): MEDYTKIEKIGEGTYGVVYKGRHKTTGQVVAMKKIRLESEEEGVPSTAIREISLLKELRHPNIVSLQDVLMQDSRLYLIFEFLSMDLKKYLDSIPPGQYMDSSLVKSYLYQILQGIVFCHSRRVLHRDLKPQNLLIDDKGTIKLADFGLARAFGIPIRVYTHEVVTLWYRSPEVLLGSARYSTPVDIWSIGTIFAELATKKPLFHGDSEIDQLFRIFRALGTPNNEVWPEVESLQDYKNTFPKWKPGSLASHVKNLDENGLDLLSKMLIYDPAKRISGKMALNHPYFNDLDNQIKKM
T3 sequence (P14635 whole entry partner): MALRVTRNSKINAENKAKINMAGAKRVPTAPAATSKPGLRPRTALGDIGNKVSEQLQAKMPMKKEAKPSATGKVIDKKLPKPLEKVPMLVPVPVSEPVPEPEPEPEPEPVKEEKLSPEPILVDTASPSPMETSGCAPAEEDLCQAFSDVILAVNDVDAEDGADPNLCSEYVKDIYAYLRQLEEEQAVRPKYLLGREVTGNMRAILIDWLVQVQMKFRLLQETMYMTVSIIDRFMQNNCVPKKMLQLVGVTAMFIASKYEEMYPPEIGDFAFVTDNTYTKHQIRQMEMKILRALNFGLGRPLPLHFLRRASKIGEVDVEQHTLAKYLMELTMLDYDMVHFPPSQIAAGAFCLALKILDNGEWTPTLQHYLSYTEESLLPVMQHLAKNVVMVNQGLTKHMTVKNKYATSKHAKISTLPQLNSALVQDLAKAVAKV
Sequence of CDK5/p35 (Q00535 whole entry, species assumed): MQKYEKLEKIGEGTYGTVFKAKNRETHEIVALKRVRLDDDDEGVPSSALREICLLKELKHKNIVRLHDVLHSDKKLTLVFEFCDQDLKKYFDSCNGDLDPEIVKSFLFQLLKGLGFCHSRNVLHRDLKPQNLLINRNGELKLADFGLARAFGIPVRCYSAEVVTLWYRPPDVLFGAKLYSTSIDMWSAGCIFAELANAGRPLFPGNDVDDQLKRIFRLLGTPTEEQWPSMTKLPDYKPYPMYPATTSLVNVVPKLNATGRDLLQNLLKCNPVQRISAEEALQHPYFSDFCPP
Sequence of CDK5/p35 (Q15078 whole entry partner, species assumed): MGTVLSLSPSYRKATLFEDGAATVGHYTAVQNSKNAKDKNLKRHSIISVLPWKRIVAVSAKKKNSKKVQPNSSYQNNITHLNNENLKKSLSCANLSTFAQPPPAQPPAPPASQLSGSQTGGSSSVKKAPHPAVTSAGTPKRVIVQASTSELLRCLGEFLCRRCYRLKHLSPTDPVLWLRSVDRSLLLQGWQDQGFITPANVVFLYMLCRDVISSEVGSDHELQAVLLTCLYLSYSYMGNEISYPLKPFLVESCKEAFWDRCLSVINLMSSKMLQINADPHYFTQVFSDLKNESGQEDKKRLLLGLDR

Regarding `O=C(Nc1ccc(F)cc1)c1n[nH]cc1NC(=O)c1c(F)cccc1F` [Example 41, 4-(2,6-Difluoro-benzoylamino)-1H-pyrazole-3-carboxylic acid (4-fluoro-phenyl)-amide], the IC50 (against CDK5/p35; in data set [1]) was below 20 µM in each case.
Take `CC1(C)CC(NC(=O)c2n[nH]cc2NC(=O)c2c(F)cccc2F)CC(C)(C)N1` [Example 88]: the IC50 against CDK2/CyclinA is below 750 µM.
Turning to `O=C(NCc1c(Cl)cccc1Cl)c1n[nH]cc1NC(=O)c1c(F)cccc1F` [Example 93], the IC50 on CDK2/CyclinA is below 750 µM; in data set [1], below 20 µM.
Consider `N[C@H]1CC[C@H](NC(=O)c2n[nH]cc2NC(=O)c2c(F)cccc2F)CC1` [Example 102], for which the IC50 against Activated CDK2/CyclinA is below 20 µM; on GSK3-β it was below 10 µM; in [1] it was below 20 µM.
For the compound `CC(C)N1CCC(NC(=O)c2n[nH]cc2NC(=O)c2c(F)cccc2F)CC1` [Example 106], the concentration for half-maximal inhibition (IC50) at Activated CDK2/CyclinA is below 20 µM; at GSK3-β, below 10 µM; in data set [1], below 20 µM.
Turning to `COc1cccc(F)c1C(=O)Nc1c[nH]nc1C(=O)NC1CCN(C(=O)OC(C)(C)C)CC1` [Example 119], the IC50 on Activated CDK2/CyclinA was below 20 µM; at GSK3-β, below 10 µM; in data set [1] it was below 20 µM.
`COc1cccc(F)c1C(=O)Nc1c[nH]nc1C(=O)NC1CCC(C(C)(C)C)CC1` (stereo not drawn) [Example 123]: the IC50 was below 20 µM against Activated CDK2/CyclinA, below 10 µM on GSK3-β and below 20 µM in data set [1].
As to `CS(=O)(=O)N1CCC(NC(=O)c2n[nH]cc2NC(=O)c2c(F)cccc2F)CC1` [Example 131], the results for the IC50 (against Activated CDK2/CyclinA; on GSK3-β; in data set [1]) were below 20 µM, below 10 µM and below 20 µM, respectively.
For `CC(C)(C)C1CCC(NC(=O)c2n[nH]cc2NC(=O)c2ccc(CN3CCCC3)o2)CC1` (stereo not drawn) [Example 134], the IC50 at Activated CDK2/CyclinA was below 20 µM; at GSK3-β, below 10 µM; in data set [1], below 20 µM.
Turning to `CC(C)(C)C1CCC(NC(=O)c2n[nH]cc2NC(=O)c2ccc(CN3CCOCC3)o2)CC1` (stereo not drawn) [Example 135], the values for the concentration for half-maximal inhibition (IC50) (at Activated CDK2/CyclinA; on GSK3-β; in [1]) were below 20 µM, below 10 µM and below 100 µM, respectively.
As for `Cc1oc(CN2CCOCC2)cc1C(=O)Nc1c[nH]nc1C(=O)NC1CCC(C(C)(C)C)CC1` (stereo not drawn) [Example 138], the IC50 on GSK3-β was below 10 µM; in [1], below 20 µM.
For the compound `O=C(Nc1c[nH]nc1C(=O)NC1CCNCC1)c1ccccc1` [Example 140], the IC50 was below 10 µM at GSK3-β and below 20 µM in data set [1].
For `O=C(Nc1c[nH]nc1C(=O)NC1CCNCC1)c1ccc(F)cc1` [Example 141], in that order: below 10 µM and below 20 µM.
Take `COc1cccc(F)c1C(=O)Nc1c[nH]nc1C(=O)NC1CCNCC1` [Example 142]: the IC50 is below 20 µM on Activated CDK2/CyclinA, below 10 µM on GSK3-β and below 20 µM in data set [1].
As for `O=C(Nc1c[nH]nc1C(=O)NC1CCNCC1)c1ccc(Cl)cc1` [Example 143], the IC50 on Activated CDK2/CyclinA is below 20 µM; on GSK3-β, below 10 µM; in data set [1] it was below 20 µM.
Consider `O=C(Nc1c[nH]nc1C(=O)NC1CCNCC1)c1cc(F)cc(F)c1` [Example 144], for which the IC50 at Activated CDK2/CyclinA is below 20 µM; at GSK3-β it was below 10 µM.
In the case of `O=C(Nc1c[nH]nc1C(=O)NC1CCNCC1)c1ccc(OC(F)F)cc1` [Example 145], the IC50 against Activated CDK2/CyclinA is below 20 µM; at GSK3-β, below 10 µM.
Turning to `O=C(Nc1c[nH]nc1C(=O)NC1CCNCC1)c1cc(-c2ccccc2)cs1` [Example 147], the IC50 is below 20 µM on Activated CDK2/CyclinA, below 10 µM on GSK3-β and below 20 µM in data set [1].
Turning to `O=C(NC1CCNCC1)c1n[nH]cc1NC(=O)c1c(F)cccc1Cl` [Example 149], the IC50 is below 20 µM against Activated CDK2/CyclinA, below 10 µM at GSK3-β and below 20 µM in data set [1].
Consider `O=C(Nc1c[nH]nc1C(=O)NC1CCNCC1)c1ccc(N2CCOCC2)cc1Cl` [Example 151], for which the IC50 is below 10 µM on GSK3-β and below 20 µM in data set [1].
Take `CN1CCC(NC(=O)c2n[nH]cc2NC(=O)c2cccc3c2OCCO3)CC1` [Example 188]: the IC50 is below 20 µM at Activated CDK2/CyclinA, below 100 µM at CDK1/CyclinB and below 20 µM in data set [1].
With `COc1cccc(OC)c1C(=O)Nc1c[nH]nc1C(=O)NC1CCN(C)CC1` [Example 206], the IC50 (at CDK1/CyclinB; in data set [1]) was below 100 µM in each case.
Turning to `CN1CCN(c2ccc(CNC(=O)c3n[nH]cc3-c3ccc(Cl)cc3Cl)cc2)CC1` [Example 226, 4-(2,4-Dichloro-phenyl)-1H-pyrazole-3-carboxylic acid 4-(4-methyl-piperazin-1-yl)-benzylamide], on CDK2/CyclinA, the 50% inhibitory concentration (IC50) was below 750 µM.
In turn, `NC(=O)c1n[nH]cc1-c1ccccc1` [Example 228, 4-Phenyl-1H-pyrazole-3-carboxylic acid amide] yielded an IC50 against CDK2/CyclinA below 750 µM.
At CDK2/CyclinA, `CN1CCN(c2ccc(CNC(=O)c3n[nH]cc3-c3ccccc3)cc2)CC1` [Example 230, 4-Phenyl-1H-pyrazole-3-carboxylic acid 4-(4-methyl-piperazin-1-yl)-benzylamide] showed an IC50 below 750 µM.
At CDK2/CyclinA, `Cc1ccc(C)n1-c1c[nH]nc1C(=O)Nc1ccc(F)cc1` [Example 235, 4-(2,5-Dimethyl-pyrrol-1-yl)-1H-pyrazole-3-carboxylic acid(4-fluoro-phenyl)-amide] registered an IC50 below 750 µM.
As for `CCCCCCCCCCCCCCCCCCOP(=O)([O-])OC1CC[N+](C)(C)CC1` [KRX-0401, Perifosine], the Half-life in [2] was around 100 h.
As to `O=S(=O)(NCCNCC=C(c1ccccc1)c1ccccc1)c1cccc2cnccc12` [NL-71-101], the IC50 was 9 µM with PKA, 36 µM in the data set on PKG and 104 µM with PKC. Moreover, the “Apoptosis in OVCAR-3 tumour cells” value with OVCAR-3 tumour cells was “induced apoptosis”.
For the compound `Nc1nc(F)nc2c1ncn2[C@@H]1O[C@H](CO)[C@@H](O)[C@@H]1O` [fludarabine], in the data set with symptomatic CLL patients, the “Duration of progression-free survival” value is listed as 33 months and the “Rate of complete responses” value is reported as 27%.
Turning to `CS(=O)(=O)O.O=C(NC1CCNCC1)c1n[nH]cc1NC(=O)c1c(Cl)cccc1Cl` [methanesulphonate salt, 4-(2,6-dichlorobenzoylamino)-1H-pyrazole-3-carboxylic acid piperidin-4-ylamide methanesulphonate], the Water solubility result in “Solubility of the salt” is on record as “excellent”. In data set [3], the Hygroscopicity result is on record as “non-hygroscopicity”.
`O=C(NC1CCNCC1)c1n[nH]cc1NC(=O)c1c(Cl)cccc1Cl` [methanesulphonic acid salt, 4-(2,6-dichloro-benzoylamino)-1H-pyrazole-3-carboxylic acid piperidin-4-ylamide]: the solubility in the data set “Solubility of the salt” (pH 4.6, aqueous buffer, acetic acid/sodium acetate buffer, solution pH approximately 4.6) is around 35 mg/mL.

As a reminder, the IC50 is the concentration that gives 50% inhibition. As a reminder, the solubility is the concentration that dissolves in the medium under given conditions.
